Measured values: patent US20050118290A1, “Compositions and method for treatment of steroid/nuclear receptor-mediated diseases” (University of Singapore, priority 2003, published 2005)

Experiments:
Assay type in all cases: cell-based
Glucocorticoid Receptor = target: T1, Glucocorticoid Receptor (Homo sapiens, UniProt P04150); assay: GR (ARE)2-Luc luciferase reporter gene assay; conditions: HQ extract 0 ×10^−6 g/mL (hormone only)
T1 construct: expressed in transfected cells
T1 sequence (P04150 1-777): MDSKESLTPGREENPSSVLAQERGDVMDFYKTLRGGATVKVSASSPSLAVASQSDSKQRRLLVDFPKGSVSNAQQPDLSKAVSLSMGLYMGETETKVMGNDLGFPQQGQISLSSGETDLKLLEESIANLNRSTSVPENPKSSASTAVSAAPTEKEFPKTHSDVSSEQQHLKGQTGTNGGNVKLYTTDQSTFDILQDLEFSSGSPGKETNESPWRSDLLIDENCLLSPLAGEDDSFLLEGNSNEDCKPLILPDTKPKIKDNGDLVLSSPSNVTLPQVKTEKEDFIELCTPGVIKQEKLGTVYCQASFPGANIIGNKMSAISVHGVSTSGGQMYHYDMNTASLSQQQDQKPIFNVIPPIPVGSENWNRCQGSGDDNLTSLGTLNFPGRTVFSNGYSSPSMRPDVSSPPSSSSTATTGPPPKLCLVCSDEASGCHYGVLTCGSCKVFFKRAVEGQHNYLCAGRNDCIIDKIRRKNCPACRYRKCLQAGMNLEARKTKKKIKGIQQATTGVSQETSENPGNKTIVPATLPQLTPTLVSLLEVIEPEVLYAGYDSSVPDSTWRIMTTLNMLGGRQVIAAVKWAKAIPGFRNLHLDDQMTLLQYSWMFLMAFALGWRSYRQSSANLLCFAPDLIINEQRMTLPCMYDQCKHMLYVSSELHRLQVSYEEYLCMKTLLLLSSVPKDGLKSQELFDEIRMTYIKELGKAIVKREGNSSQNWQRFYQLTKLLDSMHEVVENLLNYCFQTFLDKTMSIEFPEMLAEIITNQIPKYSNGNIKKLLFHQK
Protocol: (§1) The capacity of HQ extract to activate other steroid receptors, namely AR, PR, GR, ERα and ERβ was examined. […] The (ARE)2-Luc plasmid consist of two repeats of Androgen Response Element (ARE) cloned upstream of the Luciferase Reporter gene in a pGL3-Basic vector (Promega).
(§2) AR, PR, GR and ERα and […] were determined by comparing luciferase activity in test cells with control cells exposed to vehicle (i.e., ethanol or methanol) only, analogous to the determination of PPAR activity as described in the previous examples.

Progesterone Receptor = target: T2, Progesterone Receptor (Homo sapiens, UniProt P06401); assay: PR (ARE)2-Luc luciferase reporter gene assay; conditions: with progesterone 10×10^−6M
T2 construct: expressed in transfected cells; host or cells: HeLa (named for the formononetin and daidzein experiments)
T2 sequence (P06401 1-933): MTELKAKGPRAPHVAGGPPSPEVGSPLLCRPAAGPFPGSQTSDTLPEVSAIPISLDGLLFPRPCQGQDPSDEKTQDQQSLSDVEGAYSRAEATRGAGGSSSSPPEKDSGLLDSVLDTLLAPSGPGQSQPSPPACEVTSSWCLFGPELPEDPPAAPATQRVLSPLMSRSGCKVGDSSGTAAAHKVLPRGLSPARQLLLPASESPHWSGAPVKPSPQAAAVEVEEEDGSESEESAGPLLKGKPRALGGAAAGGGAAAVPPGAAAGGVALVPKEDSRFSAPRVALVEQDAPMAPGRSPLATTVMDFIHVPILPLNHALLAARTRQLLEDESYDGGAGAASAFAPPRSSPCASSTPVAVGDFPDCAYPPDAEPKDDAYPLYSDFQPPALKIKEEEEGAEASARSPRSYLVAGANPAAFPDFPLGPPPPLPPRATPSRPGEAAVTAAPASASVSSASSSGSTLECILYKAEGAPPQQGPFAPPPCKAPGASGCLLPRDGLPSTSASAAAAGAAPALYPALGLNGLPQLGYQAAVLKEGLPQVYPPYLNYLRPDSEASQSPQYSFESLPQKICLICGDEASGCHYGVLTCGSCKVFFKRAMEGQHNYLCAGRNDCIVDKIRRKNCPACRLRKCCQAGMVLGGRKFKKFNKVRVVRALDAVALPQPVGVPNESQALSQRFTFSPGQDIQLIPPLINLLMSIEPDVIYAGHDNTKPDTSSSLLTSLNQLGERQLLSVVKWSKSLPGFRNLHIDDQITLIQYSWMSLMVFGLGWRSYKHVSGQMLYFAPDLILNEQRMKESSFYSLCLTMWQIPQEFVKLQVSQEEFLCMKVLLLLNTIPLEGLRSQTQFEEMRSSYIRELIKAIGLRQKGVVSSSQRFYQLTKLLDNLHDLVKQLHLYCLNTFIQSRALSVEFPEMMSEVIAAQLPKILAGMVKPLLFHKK
Protocol: as §1, §2

[1] = target: T3, human estrogen receptor ERβ (Homo sapiens, UniProt Q92731); assay: ERβ MMTV-ERE-LUC reporter gene assay in HeLa cells
T3 construct: expressed in transfected cells; host or cells: HeLa
Protocol: (§3) ERα and ERβ activity were assayed using plasmids encoding either ERα or ERβ co-transfected with the ERE-LUC reporter gene. To assay estrogen receptor agonist activity, HeLa cells were transiently co-transfected with two plasmids (Tcherepanova, et al., 2000) using Lipofectamine. The first plasmid comprised DNA encoding human estrogen receptor (either ERα or ERβ), and the second plasmid comprised an estrogen-driven reporter system comprising: a luciferase reporter gene (LUC) whose transcription is under the control of upstream regulatory elements comprising 4 copies of the vitellogenin estrogen response element (ERE) cloned into the Mouse Mammary Tumor Virus (MMTV) promoter (the full name of the reporter system being ‘MMTV-ERE-LUC’).
as §2

[2] = target: T4, human estrogen receptor ERα (Homo sapiens, UniProt P03372); assay: ERα MMTV-ERE-LUC reporter gene assay in HeLa cells
T4 construct: expressed in transfected cells; host or cells: HeLa
T4 sequence (P03372 1-595): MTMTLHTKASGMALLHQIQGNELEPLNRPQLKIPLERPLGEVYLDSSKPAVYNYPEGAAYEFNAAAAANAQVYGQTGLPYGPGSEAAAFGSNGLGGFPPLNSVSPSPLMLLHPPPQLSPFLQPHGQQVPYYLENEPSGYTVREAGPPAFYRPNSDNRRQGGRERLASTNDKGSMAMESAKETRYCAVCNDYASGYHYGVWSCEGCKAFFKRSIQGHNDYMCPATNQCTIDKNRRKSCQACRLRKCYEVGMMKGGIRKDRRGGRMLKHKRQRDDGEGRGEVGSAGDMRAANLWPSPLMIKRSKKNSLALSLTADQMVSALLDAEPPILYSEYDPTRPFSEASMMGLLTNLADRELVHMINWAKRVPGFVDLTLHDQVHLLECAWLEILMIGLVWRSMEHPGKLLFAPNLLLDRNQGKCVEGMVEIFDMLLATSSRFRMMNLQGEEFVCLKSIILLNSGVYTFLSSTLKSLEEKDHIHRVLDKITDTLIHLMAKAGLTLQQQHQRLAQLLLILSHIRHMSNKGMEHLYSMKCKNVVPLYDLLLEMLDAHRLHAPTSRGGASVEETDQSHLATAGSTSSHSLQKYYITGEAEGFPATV
Protocol: as §3, §2

PPARα = target: T5, PPARα (Homo sapiens, UniProt Q07869); assay: Chimeric Gal4DBD-PPARαLBD receptor / UASg-luciferase reporter gene assay in HeLa cells
T5 construct: expressed in transfected cells; host or cells: HeLa
T5 sequence (Q07869 239-466 limits assumed): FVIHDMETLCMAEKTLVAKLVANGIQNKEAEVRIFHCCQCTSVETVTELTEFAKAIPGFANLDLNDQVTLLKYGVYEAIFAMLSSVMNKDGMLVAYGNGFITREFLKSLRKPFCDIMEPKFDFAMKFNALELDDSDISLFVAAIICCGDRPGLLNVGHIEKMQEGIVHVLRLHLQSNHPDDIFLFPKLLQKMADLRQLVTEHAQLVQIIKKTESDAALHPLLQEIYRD
Text: (§4) In an example of such a reporter gene assay, a plasmid containing chimeric Ga14DBD-PPARLBD receptor cDNA was constructed by excising the ligand binding domain (LBD) of full length PPARγ and PPARα and ligating the resulting fragments in frame to the Ga14-DNA binding domain (DBD) of Saccharomyces cerevisiae in a pM vector (Clontech). Specifically, to construct Ga14DBD-PPARγLBD plasmid, pSG5 expression vector (Stratagene) containing full length PPARγ was excised with Rsa I and blunt ligated to Hind III site of pMGa14DBD expression plasmid (Clontech). To construct Ga14DBD-PPARαLBD plasmid, pSG5 expression vector (Stratagene) containing full length PPARα was excised with BstU I and BamH I and blunt-end ligated in frame to BamH I site of pMGa14DBD expression plasmid (Clontech). […] Ga14 DBD binds very strongly to the exogenous UASg promoter, thereby giving rise to a sensitive and specific assay. To measure PPARγ and PPARα agonist activity, HeLa cells were grown in 24-well microtiter plates and then transiently co-transfected with the two plasmids (chimeric PPAR receptor and UASg reporter gene) using Lipofectamine (Invitrogen). […] Concurrently, cells exposed to known PPAR ligands served as positive controls. Replicate wells, exposed to the vehicle solvent (i.e., ethanol or methanol) in which herbal extracts were dissolved, were used as negative controls. After the 40 hr incubation period, cells were rinsed with phosphate buffered saline (PBS), lysis buffer was added, and cell lysates were collected for measurement of luciferase activity using a luminometer. […] All data points are in triplicate. The data points represent the mean of triplicate wells. Luciferase activity in such an assay accurately reflects the activity of any ligands on PPARγ or PPARα.

PPARγ = target: T6, PPARγ (Homo sapiens, UniProt P37231); assay: Chimeric Gal4DBD-PPARγLBD receptor / UASg-luciferase reporter gene assay in HeLa cells
T6 construct: expressed in transfected cells; host or cells: HeLa
T6 sequence (P37231 238-503 limits assumed): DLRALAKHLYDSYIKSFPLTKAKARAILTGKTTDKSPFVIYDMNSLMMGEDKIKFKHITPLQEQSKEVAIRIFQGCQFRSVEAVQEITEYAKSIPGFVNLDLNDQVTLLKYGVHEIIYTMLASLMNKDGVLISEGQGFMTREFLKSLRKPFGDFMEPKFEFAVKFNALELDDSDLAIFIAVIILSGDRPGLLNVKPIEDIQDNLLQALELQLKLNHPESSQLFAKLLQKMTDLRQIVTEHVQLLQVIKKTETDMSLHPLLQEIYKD
Text: as §4

T3 sequence (Q92731 whole entry): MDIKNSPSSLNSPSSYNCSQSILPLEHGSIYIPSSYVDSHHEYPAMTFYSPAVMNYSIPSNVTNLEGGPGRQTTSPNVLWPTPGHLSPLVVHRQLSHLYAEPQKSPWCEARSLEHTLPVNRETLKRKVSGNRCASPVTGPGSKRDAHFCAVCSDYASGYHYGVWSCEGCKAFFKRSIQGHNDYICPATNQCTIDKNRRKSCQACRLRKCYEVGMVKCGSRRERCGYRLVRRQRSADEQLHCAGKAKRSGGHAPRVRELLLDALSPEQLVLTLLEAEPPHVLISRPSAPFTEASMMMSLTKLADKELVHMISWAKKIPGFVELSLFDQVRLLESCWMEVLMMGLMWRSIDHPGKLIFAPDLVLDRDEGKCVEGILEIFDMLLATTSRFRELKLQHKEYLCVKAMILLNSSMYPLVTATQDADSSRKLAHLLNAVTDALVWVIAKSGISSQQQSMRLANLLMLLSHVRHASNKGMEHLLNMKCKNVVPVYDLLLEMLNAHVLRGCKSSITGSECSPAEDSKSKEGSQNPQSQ

Structure (SMILES) | Luciferase activity (Fold ± SE) Glucocorticoid Receptor/Hydrocortisone (1 × 10^−9 M) (Glucocorticoid Receptor) | increase of the activity of maximal doses of PR agonist (Progesterone Receptor) | effect on ERβ activity of estradiol ([1]; 1 to 30×10^−6 g/mL + estradiol 1×10^−9M) | ERβ activity comparable to % maximal activity of Estradiol ([1]; 30×10^−6 g/ml) | ERα activity comparable to % maximal activity of Estradiol ([2]; 30×10^−6 g/ml) | increase of the activity of maximal doses of estradiol on ERα ([2]; with estradiol 1×10^−9M) | increase of PPARα activity, up to (PPARα; Table 8) | increase of the activity of maximal doses of PPARα agonist (PPARα; with WY14643 30×10^−6M) | PPARγ activity when added to pioglitazone compared with pioglitazone alone (PPARγ; 3 to 30 ×10^−6 g/mL + pioglitazone 30×10^−6M) | increase of PPARγ activity, up to (PPARγ; Table 8)
C[C@]12CCC(=O)C=C1CC[C@@H]1[C@@H]2[C@@H](O)C[C@@]2(C)[C@H]1CC[C@]2(O)C(=O)CO [Hydrocortisone, hydrocortisone] | 11014 ± 285 Fold |  |  |  |  |  |  |  |  | 
COc1ccc(-c2coc3cc(O)ccc3c2=O)cc1 [formononetin, 7-Hydroxy-4′-methoxyisoflavone] |  | 1.8 fold | did not inhibit or augment the activity of estradiol alone | ~400% | comparable to maximal activity of Estradiol | 3.2 fold | ≤ 10 fold | 4.4 fold | no different than that observed with pioglitazone alone | up to 6 fold
